Source: patent US9481667B2, “Salts and solid forms of isoquinolinones and composition comprising and methods of using the same” (Infinity Pharmaceuticals, Inc., priority 2013, dated 2016)
Entries after “also recorded” stand apart in the source; their conditions may differ. Where a name gives a salt, the structure may show the parent alone.

Tests used:
Assay type in all cases: physicochemical
[1] = Gravimetric vapour sorption (GVS)
Protocol: Sorption isotherms were obtained using a Hiden IGASorp moisture sorption analyser, controlled by CFRSorp software. The sample temperature was maintained at 25° C. by a Huber re-circulating water bath. The humidity was controlled by mixing streams of dry and wet nitrogen, with a total flow rate of 250 ml/min. The relative humidity (RH) was measured by a calibrated Vaisala RH probe (dynamic range of 0-95% RH), located near the sample. The weight change, (mass relaxation) of the sample as a function of % RH was constantly monitored by the microbalance (accuracy ±0.001 mg). Typically 10-20 mg of sample was placed in a tared mesh stainless steel basket under ambient conditions. The sample was loaded and unloaded at 40% RH and 25° C. (typical room conditions). A moisture sorption isotherm was performed as outlined below (2 scans giving 1 complete cycle). The standard isotherm was performed at 25° C. at 10% RH intervals over a 0-90% RH range.
The software uses a least squares minimisation procedure together with a model of the mass relaxation, to predict an asymptotic value. The measured mass relaxation value must be within 5% of that predicted by the software, before the next % RH value is selected. The minimum equilibration time was set to 1 hour and the maximum to 4 hours. The sample was recovered after completion of the isotherm and re-analysed by XRPD.

[2] = Solubility assessment using free base Hydrate Form 2; details: RT (cell says RT, head 50° C.)
Protocol: The best solvent systems (clear solutions) were methanol:anisole 1:1 and DMSO (10 volumes, at RT), dioxane (10 volumes, 50° C.), chloroform (20 volumes, RT). […]

[3] = Polymorph screen: maturation (temperature cycling RT/50° C.) in solvents
Protocol: One of 21 solvents was added to each vial in a number of aliquots (up to 30 volumes), with shaking. All the samples were then placed under maturation between RT to 50° C. (4 hours at each temperature) for 3 days. After maturation the samples were analysed by XRPD. Clear solutions were cooled to −20° C. (freezer). If no precipitation occurred samples were evaporated at RT.
Samples were placed under maturation between RT-50° C. (4 hours cycle) for 3 days. After maturation the samples were analyzed by XRPD. Clear solutions were then cooled to −20° C. (freezer). If no precipitation occurred, samples were evaporated at RT.
Bis-Sulfuric acid salt Form 1 of Compound 1 (ca. 35 mg) was weighed into vials. The corresponding solvents and solvent mixtures were added in portions of (a total of) 5, 10, 20, and 30 volumes at 50° C., with shaking, aiming for clear solutions. After each addition, the vials were allowed to shake for 20 minutes, after which observations were made. Solutions were allowed to evaporate, whereas slurries were set for 8 hour temperature cycling maturation, between RT and 50° C., for 5 days.
The oils obtained by solvent evaporation were used for the maturation screen. Anhydrous solvents (5 volumes; 100 μL) were used in order to minimise the amount of water present. Any solutions were allowed to slowly evaporate, whereas slurries were set for 8 hour temperature cycling maturation, between RT and 50° C. After 24 hours, most oils had not mixed with the solvents, and these were scratched with a spatula, producing slurries. These were matured for a further 24 hours before performing XRPD analysis.
Amorphous free base Compound 1 (ca. 25 mg) was weighed into vials. The selected solvents and solvent mixtures (5 to 20 volumes) were added with stirring. Any solutions were allowed to slowly evaporate, whereas slurries were set for 8 hour temperature cycling maturation, between RT and 50° C., for 2 days.
Crystals were ground in order to analyse them by XRPD. Suspensions were set for temperature cycling for a total of five days after which time XRPD analysis was carried out. […] Similar to the screen in Example 20, these XRPD patterns show slight differences (FIG. 37). However, solids from both screens obtained from the same solvent show a matching XRPD pattern, also supporting that this is a series of isostructural solvates. […]

[4] = Storage at 40° C./75% RH (solid-state stability); details: for Stability on storage at 40° C./75% RH: 1 week, solid form by XRPD; for Storage 40° C./75% RH: salt screen solids stored 1 week, outcome / XRPD pattern after storage
Protocol: The crystalline solids were filtered, dried at ambient conditions, and stored at 40° C./75% RH for 1 week and analyzed by ^1H NMR/IC.
Samples from the screen using amorphous free base Compound 1 were analysed by ^1H-NMR and DSC, and re-analysis by XRPD was also carried out after drying at 50° C./vacuum and storage at 40° C./75% RH (the same sample was dried and stored at elevated humidity).

**Q.** With CC(=O)O.COc1cc(-c2cccc3cc([C@H](C)Nc4nc(N)ncc4C#N)n(-c4ccccc4)c(=O)c23)ccn1.COc1cc(-c2cccc3cc([C@H](C)Nc4nc(N)ncc4C#N)n(-c4ccccc4)c(=O)c23)ccn1 [Batch 1 of Form 6] as the compound, how does the “GVS: XRPD after the experiment” value [1] read?
**A.** The value was “anhydrous Form 4”.

**Q.** And the “GVS: moisture on loading” value ([1]; 25° C.)?
**A.** Its value is 6.3% w/w moisture on.

**Q.** What about the “GVS: reversible moisture uptake between 0-90% RH” value ([1]; second cycle) of the same compound?
**A.** Its value is “cycle shows 4.9%”.

**Q.** For COc1cc(-c2cccc3cc([C@H](C)Nc4nc(N)ncc4C#N)n(-c4ccccc4)c(=O)c23)ccn1.O [FB Hydrate Form 2], which Solubility ([2]; DMSO, 10 vols) is on record?
**A.** Its Solubility is “✓ (RT)”.

**Q.** And the Solubility ([2]; MeOH/anisole, 10 vols)?
**A.** The Solubility was “✓ (RT)”.

**Q.** And the Solubility ([2]; chloroform, 20 vols)?
**A.** The Solubility was “✓ (RT)”.

**Q.** And the XRPD ([3]; 1-butanol, Maturation)?
**A.** The XRPD was “Crystalline Form 5”.

**Q.** And the XRPD ([3]; 2-MeTHF, evaporation yielded oil, maturation of oil)?
**A.** The XRPD was “Crystalline Form 5”.

**Q.** And the XRPD ([3]; Acetone, Maturation)?
**A.** Its XRPD is “Crystalline Form 5”.

**Q.** And the XRPD ([3]; DCM:MeOH 1:1, Crystallization in fridge)?
**A.** Its XRPD is “Crystalline Form 5 + Form 1”.

**Q.** What about the XRPD ([3]; DCM, Crystallization in fridge) of the same compound?
**A.** Its XRPD is “Crystalline Form 5”.

**Q.** And the XRPD ([3]; DMSO, no crystallization in fridge, set for evaporation)?
**A.** The XRPD was “Amorphous”.

**Q.** What about the XRPD ([3]; Dioxane, evaporation yielded oil, maturation of oil) of the same compound?
**A.** The XRPD was “Crystalline Form 5 + Form 3”.

**Q.** What about the XRPD ([3]; EtOAc, Maturation) of the same compound?
**A.** The XRPD was “Crystalline Form 5”.

**Q.** What about the XRPD ([3]; EtOH/5% water, Maturation) of the same compound?
**A.** The XRPD was “Crystalline Form 5”.

**Q.** What about the XRPD ([3]; EtOH/water 1:1, Maturation) of the same compound?
**A.** The XRPD was “Crystalline Form 2”.

**Q.** What about the XRPD ([3]; EtOH, Maturation) of the same compound?
**A.** Its XRPD is “Crystalline Form 5”.

**Q.** And the XRPD ([3]; IPA, Maturation)?
**A.** The XRPD was “Crystalline Form 5”.

**Q.** What about the XRPD ([3]; IPAc, Maturation) of the same compound?
**A.** The XRPD was “Crystalline Form 5”.

**Q.** And the XRPD ([3]; MIBK, Maturation)?
**A.** Its XRPD is “Crystalline Form 5”.

**Q.** And the XRPD ([3]; MeCN/5% water, Crystallization in fridge)?
**A.** The XRPD was “Crystalline Form 5”.

**Q.** What about the XRPD ([3]; MeOH/anisole, Crystallization in fridge) of the same compound?
**A.** Its XRPD is “Crystalline Form 5”.

**Q.** What about the XRPD ([3]; THF, Crystallization in fridge) of the same compound?
**A.** The XRPD was “Crystalline Form 5”.

**Q.** What about the XRPD ([3]; acetonitrile, Maturation) of the same compound?
**A.** The XRPD was “Crystalline Form 5”.

**Q.** And the XRPD ([3]; chloroform, cooling in fridge yielded oil, maturation of oil)?
**A.** The XRPD was “Crystalline Form 5”.

**Q.** With COc1cc(-c2cccc3cc([C@H](C)Nc4nc(N)ncc4C#N)n(-c4ccccc4)c(=O)c23)ccn1 [Form 1 of the hydrochloride salt of Compound 1] [(S)-2-amino-4-((1-(8-(2-methoxypyridin-4-yl)-1-oxo-2-phenyl-1,2-dihydroisoquinolin-3-yl)ethyl)amino)pyrimidine-5-carbonitrile] as the compound, how does the “Stability on storage at 40° C./75% RH” value [4] read?
**A.** The value was “deliquesces”.

**Q.** What about the “Stability on storage at 40° C./75% RH” value ([4]; listed as hydrochloride) of the same compound?
**A.** The value was “deliquesced”.

**Q.** What about the “Storage 40° C./75% RH” value ([4]; listed as Hydrochloric acid) of the same compound?
**A.** Its value is “Deliquesced”.

**Q.** With COc1cc(-c2cccc3cc([C@H](C)Nc4nc(N)ncc4C#N)n(-c4ccccc4)c(=O)c23)ccn1 [Form 1 of the isethionate salt of Compound 1] [(S)-2-amino-4-((1-(8-(2-methoxypyridin-4-yl)-1-oxo-2-phenyl-1,2-dihydroisoquinolin-3-yl)ethyl)amino)pyrimidine-5-carbonitrile] as the compound, how does the “Stability on storage at 40° C./75% RH” value [4] read?
**A.** The value was “deliquesces”.

**Q.** And the “Stability on storage at 40° C./75% RH” value ([4]; listed as isethionate)?
**A.** Its value is “deliquesced”.

**Q.** What about the “Storage 40° C./75% RH” value ([4]; listed as 2-Hydroxyethane sulfonic acid) of the same compound?
**A.** Its value is “Deliquesced”.

**Q.** With COc1cc(-c2cccc3cc([C@H](C)Nc4nc(N)ncc4C#N)n(-c4ccccc4)c(=O)c23)ccn1 [Form 4 of Free Base Compound 1] as the compound, how does the “GVS: moisture on loading” value ([1]; 25° C.) read?
**A.** The value was 0.3 % w/w.

**Q.** What about the “GVS: uptaken between 70-90% RH” value ([1]; 25° C., with hysteresis on desorption) of the same compound?
**A.** The value was 4.8 % w/w.

**Q.** With COc1cc(-c2cccc3cc([C@H](C)Nc4nc(N)ncc4C#N)n(-c4ccccc4)c(=O)c23)ccn1 [Form 4 of the free base of Compound 1, (S)-2-amino-4-((1-(8-(2-methoxypyridin-4-yl)-1-oxo-2-phenyl-1,2-dihydroisoquinolin-3-yl)ethyl)amino)pyrimidine-5-carbonitrile] as the compound, how does the “XRPD after Storage at 40° C./75% RH” value ([4]; screening sample from H2O) read?
**A.** Its value is “No changes”.

**Q.** And the “GVS: form change with humidity” value ([1]; above 80% RH)?
**A.** The value was “hydrates above 80% RH, but reversibly dehydrates back at 40% RH”.

**Q.** For COc1cc(-c2cccc3cc([C@H](C)Nc4nc(N)ncc4C#N)n(-c4ccccc4)c(=O)c23)ccn1 [Form 6 of the free base of Compound 1, (S)-2-amino-4-((1-(8-(2-methoxypyridin-4-yl)-1-oxo-2-phenyl-1,2-dihydroisoquinolin-3-yl)ethyl)amino)pyrimidine-5-carbonitrile], which “Stability on storage at 40° C./75% RH” value [4] is on record?
**A.** The value was “converts to Form 3”.

**Q.** What about the “Storage at elevated humidity” value ([4]; elevated humidity conditions, solid form) of the same compound?
**A.** The value was “conversion to Hydrate Form 3”.

**Q.** What about the “GVS: form change with humidity” value ([1]; at 0% RH) of the same compound?
**A.** The value was “Desolvation to the anhydrous Form 4”.

**Q.** What does the source list for CC(=O)c1ccc2c(c1)[C@@H]1C=CC[C@@H]1[C@H](c1cc3c(cc1Br)OCO3)N2 [amorphous material]?
**A.** XRPD ([3]; 2-MeTHF 200 μL, cycling RT/50° C.): Crystalline Form 5; XRPD ([3]; Acetone 100 μL, cycling RT/50° C.): Crystalline Form 5; XRPD ([3]; Acetonitrile 200 μL, cycling RT/50° C.): Crystalline Form 5; XRPD ([3]; DCM 150 μL, cycling RT/50° C.): Crystalline Form 5; XRPD ([3]; DCM:MeOH 1:1 150 μL, cycling RT/50° C.): Crystalline Form 5; XRPD ([3]; DME 150 μL, cycling RT/50° C.): Crystalline Form 5; XRPD ([3]; EtOAc 100 μL, cycling RT/50° C.): Crystalline Form 5; XRPD ([3]; EtOH 250 μL, cycling RT/50° C.): Crystalline Form 5; XRPD ([3]; EtOH/5% water 150 μL, cycling RT/50° C.): Crystalline Form 5; XRPD ([3]; H2O 450 μL, cycling RT/50° C.): Partially crystalline =; also recorded: matches FB Pattern 4; XRPD ([3]; IPA 150 μL, cycling RT/50° C.): Crystalline Form 5; XRPD ([3]; IPAc 300 μL, 16 hours maturation): Crystalline Form 5; XRPD ([3]; MIBK 100 μL, cycling RT/50° C.): Crystalline Form 5; XRPD ([3]; MeCN/5% water 150 μL, cycling RT/50° C.): Crystalline Form 5; XRPD ([3]; MeOH 250 μL, cycling RT/50° C.): Crystalline Form 5; XRPD ([3]; TBME 300 μL, cycling RT/50° C.): Crystalline Form 5; XRPD ([3]; THF 150 μL, cycling RT/50° C.): Crystalline Form 5; XRPD ([3]; THF/5% water 150 μL, cycling RT/50° C.): Crystalline Form 5
